One block for each molecule: values may come before it. No end group written: not given here.
Key:
[1] = system: Primary human melanocytes; assay type: cell-based; conditions: 24 h, 100 µM
Experimental: (§1) Primary human melanocytes were kindly obtained from Dr. Todd Ridky in the department of dermatology, Stanford University. Cells were cultured in Medium 254 (Cascade Biologics) supplemented with Human Melanocyte Growth Supplement (HMGS, Cascade Biologics). They were grown in a humidified atmosphere with 5% CO2 at 37° C. Cell plating densities were arranged that those cells were in log phase of growth for the duration of incubation with test samples. Subcultures of cells were plated at a density of 4×10^4 cells/cm^2. Approximately 24 h later, fresh medium and test samples were added. Cells were harvested 7 d after test samples addition, replaced with fresh medium and test samples every two days.
Cell viability was determined using WST-1 Cell Proliferation Kit (Roche). Cells were plated at 1×10^5/well (24-well plates). Twenty-four hours after plating, test samples were added and cultures were incubated for an additional 7 d. At the end of the treatment period, 50 μl WST-1 was added to each well. The plates were placed at 37° C. for 4 h in the dark and the absorbance at 450 nm was read using microplate. Usually, 3 replicate wells were measured for each group to be tested. Wells containing medium but no cells served as controls. Cell viability was calculated according to the equation: cell viability=absorbance (sample tested)/absorbance (medium only)×100%. Assay of Cellular Tyrosinase Activity […]

[2] = system: Primary human melanocytes; assay: Melanocyte proliferation rate; assay type: cell-based; conditions: up to 10 μM
Experimental: as §1
To exclude the possibility that the inhibitory effects of RA peptide on melanogenesis might be caused by the inhibition of cell growth, we compared the number of cells grown in the presence and absence of test samples.

[3] = system: Human melanocytes; assay: Melanin content measurement in melanocytes; assay type: cell-based; conditions: 10 μM (peptide: similar concentration), 7 days
Experimental: as §1
Human melanocytes were cultured in 6-well plates and treated with individual test samples for 7 d. After washes in PBS, cells were detached by short incubation in trypsin/EDTA (0.25%/0.1% in PBS). An aliquot was used for cell count. […] Melanin concentrations were calculated by comparison of the OD at 475 nm of unknown samples with a standard curve obtained with synthetic melanin.
To provide more direct evidence that RA peptide inhibits melanogenesis, its effects on melanin production in melanocytes was studied. The contents of melanin in melanocytes treated with no addition, RA peptide or HQ for 7 days were determined with a spectrophotometer and compared with a melanin standard curve. […]

[4] = target: T1, cellular tyrosinase activity of melanocytes (Homo sapiens, UniProt P14679); assay: Assay of cellular tyrosinase activity with L-DOPA as substrate; assay type: cell-based; conditions: 7 d treatment
T1 construct: Primary human melanocytes were kindly obtained from Dr. Todd Ridky; endogenous in cells; host or cells: primary human melanocytes (passage 3)
T1 sequence (P14679 19-529): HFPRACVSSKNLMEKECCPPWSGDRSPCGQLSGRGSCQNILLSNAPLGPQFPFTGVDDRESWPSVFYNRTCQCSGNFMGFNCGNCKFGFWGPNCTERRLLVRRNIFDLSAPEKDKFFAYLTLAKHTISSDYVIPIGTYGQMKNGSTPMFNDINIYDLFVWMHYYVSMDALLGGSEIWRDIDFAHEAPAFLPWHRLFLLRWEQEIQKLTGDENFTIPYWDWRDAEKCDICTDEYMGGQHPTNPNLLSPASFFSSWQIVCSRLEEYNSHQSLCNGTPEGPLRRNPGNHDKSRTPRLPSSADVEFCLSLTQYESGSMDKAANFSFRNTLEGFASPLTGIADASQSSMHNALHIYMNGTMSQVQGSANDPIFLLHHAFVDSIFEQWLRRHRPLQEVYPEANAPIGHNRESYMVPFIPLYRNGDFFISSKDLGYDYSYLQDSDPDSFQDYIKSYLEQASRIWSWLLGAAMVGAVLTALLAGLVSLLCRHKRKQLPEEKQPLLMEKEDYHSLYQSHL
Experimental: as §1
Human melanocytes were cultured in 6-well plates. After treatment with individual test samples for 7 d, the cells were washed with phosphate-buffered saline (PBS) and lysed with phosphate buffer, pH 6.8, containing 1% Triton X-100. After sonication, lysates were clarified by centrifugation at 10000 g for 10 min. After determination of protein content with a Bio-Rad protein assay kit, lysates were added to 96 well culture plate containing equal amounts of protein (40 μg), and adjusted with lysis buffer to reach 150 μl in each well. 75 μl of 10 mM L-DOPA dissolved in lysis buffer was added to each well. The culture plate was incubated at 37° C. for 30 min, and then read with the spectrophotometer at 475 nm.
Tyrosinase inhibitory activity was calculated with the following formula: tyrosinase inhibition (%)=[1−(O.D.475 of sample/O.D.475 of control)]×100%.
We also examined the inhibitory action of RA peptide on cellular tyrosinase activity of melanocytes, using L-DOPA as substrate. After centrifugation and protein calculation, certain volume of supernatant for each sample was transferred to 96 well culture plate by compensating a certain protein content in each well, and adjusted the volume of each well to 150 μl with 0.067M of phosphate buffer (pH 6.8). 75 μl of 10 mM L-DOPA dissolved in phosphate buffer (pH 6.8) was added to each well. The culture plate was incubated at 37° C. for 30 min, and then read with the spectrophotometer at 475 nm.

[5] = target: tyrosinase; conditions: read-out: published IC50; cited from earlier work
[6] = target: Mushroom tyrosinase; assay: Mushroom tyrosinase inhibition, colorimetric detection of dopachrome (IC50, kinetics); assay type: biochemical; conditions: L-tyrosine substrate, pH 6.8, 37° C., absorbance 475 nm at 30 min
Experimental: Mushroom tyrosinase, L-tyrosine and other chemicals for the enzymatic reaction were obtained from Sigma-Aldrich. […] It is understood that research grade reagents were used for convenience, and it is preferred that the peptides be prepared to pharmaceutical grade purity, greater than 90%, preferably greater than 99% pure. Inhibition of tyrosinase by experimental peptides was determined by calorimetric detection of dopachrome, the reaction product of the substrate L-tyrosine. Mushroom tyrosinase, L-tyrosine, and a potassium phosphate buffer (pH 6.8) were added to 96-well plates containing short sequence peptides dissolved in 5% DMSO and incubated at 37° C. The absorbance at 475 nm was measured using a BIO-TEK plate reader 30 min after reaction initiation. Each experiment was performed in triplicate on 3 separate occasions. The protocol is described in further detail in Piao et al., “Mushroom Tyrosinase Inhibition Activity of Some Chromones,” Chem. Pharm. Bull. 56(3): 309-311 (2002), and in Pomerants, J. Biol. Chem 238:2351-2357 (1963). Enzyme kinetics were calculated using the Michaelis-Menton equation by observing changes in reaction velocity accompanying substrate concentrations of 0.5, 1, 2, and 4 mM L-tyrosine. Once initial reaction velocities were obtained, Lineweaver-Burke plots were created to calculate Km, Vmax, and to determine the mode of enzymatic inhibition.

[7] = system: facial pigmentation of patients with recalcitrant melasma; assay: Clinical study in patients with recalcitrant melasma; assay type: in vivo, human; conditions: peptide in liposomes at 1%
Text: Patients with recalcitrant melasma (those that failed over the counter products, or HQ 4% for six months, or Tri-luma® Cream for six months) were randomized and blinded to two treatment groups (vehicle and peptide). Patients applied each product twice per day followed by a sunscreen with a sun protection factor of 30 Qam. Patients were then asked to rate the percentage improvement in their facial pigmentation using a nominal scale of 0-100, with 0 corresponding to no change and 100 corresponding to complete resolution. The results are shown in FIG. 3, in which the PLG-OH peptide is shown to be rated as 40-50% improvement, where vehicle caused no improvement. The peptide was formulated in liposomes at 1%, and the control was the liposomes alone.

[8] = system: Mushroom tyrosinase; assay: Tyrosinase inhibition at single concentration (melanin synthesis evaluation); assay type: biochemical; conditions: for considered effective in these assays: mushroom tyrosinase and B-16 assays, SF 8 mM, PLG 3 mM
Experimental: Peptides SF, VL, and PLG-OH were tested, along with controls of kojic acid, a known tyrosinase inhibitor, and licorice extracts, a known tyrosinase inhibitor (See J. Agric. Food Chem., 51 (5), 1201-1207, 2003). Tyrosinase inhibition was measured using mushroom tyrosinase (Sigma Aldrich cat # T3824) and L-tyrosine (Sigma Aldrich cat # T8566) in an assay buffer consisting of phosphate buffer (1.0M, pH 6.8) and 5%, and absolute water. The assay buffer, with test sample concentrations and tyrosinase, was incubated in the dark at room temperature for one hour and absorption was read.

[9] = system: B16-F10 mouse melanoma cells; assay: Cell viability by MTT assay in B-16 pigmentation assay; assay type: cell-based
Experimental: (§2) The B-16 pigmentation assay used B16-F10 mouse melanoma cells (ATCC CRL-6475) grown in DMEM, DMEM without phenol red, FBS, antibiotics, L-glutamine and other standard components. Cells were counted in a Packard Spectracount (microplate spectrophotometer) filtered at 540 nm and 570 nm. The cells were cultured with growth medium and incubated for 24 hrs. at 37° C. and 10% CO2. Cells were treated with 200 μl of growth medium containing test active ingredient and incubated at 37° C. and 10% CO2. After 7 days, the cells were read at 540 nm using the Packard microplate reader. Cell viability was assessed using the MTT assay (Mosmann T. Rapid colorimetric assay for cellular growth and survival: application to proliferation and cytotoxicity assays. J Immunol Methods. 1983 Dec. 16; 65(1-2):55-63), which is used to determine the number of living cells in a sample.

[10] = system: B16-F10 mouse melanoma cells; assay: B-16 pigmentation assay; assay type: cell-based; conditions: concentration tested 8 mM, 7 days
Experimental: as §2

[11] = Solubility in tyrosinase assay buffer; assay type: physicochemical; conditions: 8 mM
[12] = Stability testing of 1% peptide solutions by HPLC/MS; conditions: 1% solution, sealed tube, ambient, HPLC or MS, 4 months
Experimental: A sixth peptide, VLLK (SEQ ID NO: 3), was used as inner standard for quantitative evaluation of other peptide stability.
HPLC/MS: A 1% solution was prepared for each peptide and sealed in a tube, which was kept in ambient environment. High Performance Liquid Chromatography (HPLC) and Mass Spectroscopy (MS) were tested periodically at an approximate time range of 30 days. A fresh 1% VLLK (SEQ ID NO: 3) solution used as inner standard was prepared on the same day of each test. The amount of each peptide was determined by its peak area relative to that of VLLK (SEQ ID NO: 3).

Molecule: Oc1ccc(O)cc1 [HQ, Hydroquinone]
- cell death [1]: 100%
- inhibitory effects on melanocyte proliferation rates [2]: did not show inhibitory effects
- melanin content [3]: slightly reduced
- reduction of cellular tyrosinase activity ([4]; 10 μM): 28.8%
- IC50 [5]: ~700 µM

- IC50 [6]: 2730 µM
- % Tyrosinase inhibition ([8]; concentration tested 3 mM): 6%
Molecule: PLG-OH [tripeptide PLG with native amino and carboxy termini, distinguished from PLG-NH2]
- side effects (erythema, scaling, contact dermatitis reaction, comedone formation) ([7]; 4-month exposure): no side effects
- percentage improvement in facial pigmentation ([7]; patient-rated scale 0-100, applied twice per day): 40-50%
- considered effective in these assays [8]: Neither SF peptide nor PLG was considered effective
- cytotoxicity (printed in the % Depigmentation column) ([9]; concentration tested 3 mM): cyto-toxic

- % Tyrosinase inhibition ([8]; concentration tested 0.25%): 94%
Molecule: O=c1cc(CO)occ1O [Kojic Acid, 5-hydroxy-2-(hydroxymethyl)-4-pyrone, reference compound]

- IC50 (result in words) [6]: no effect
Molecule: VLLK [VL peptide, reference compound]

- reduction of cellular tyrosinase activity ([4]; 1 μM): 1.2%
- reduction of cellular tyrosinase activity ([4]; 10 μM): 15.6%
- reduction of cellular tyrosinase activity ([4]; 100 μM): 21.1%
Molecule: RADSRADC [RA peptide, RADSRADC]
- Viability ([9]; 150, 300 and 450 uM): not significantly affected

- solubility in buffer [11]: ND (insoluble
- degradation [12]: did not show degradation
Molecule: SFLLRN [SF peptide]
- considered effective in these assays [8]: Neither SF peptide nor PLG was considered effective
- % Depigmentation (B-16 Assay) [10]: 0%
